# Measured values from patent US20080009418A1, “Selective Inhibitors” (Alchemia LTD., priority 2004, published 2008).
# Columns and labels:
# Conditions in all cases: compound at 10 μM
# Human neurokinin (NK1) = molecular target: T1, Human neurokinin (NK1) (Homo sapiens, UniProt P25103); assay: Radioligand binding, human neurokinin NK1 membranes, filtration, [125I]-Substance P
# T1 construct: purchased Perkin Elmer Biosignal
# In short: (§1)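 Membranes from cloned human receptors were incubated with compound and radioligand for 1 hour at room temperature. Bound ligand was collected on 0.3% PEI-soaked filters, washed with cold 50 mM Tris-HCl pH 7.4, and counted by scintillation. Percent inhibition was computed against DMSO totals and reference-ligand nonspecific wells.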
# [1] = molecular target: T2, Human neuropeptide Y (NPY-Y1) (Homo sapiens, UniProt P25929); assay: Radioligand binding, human neuropeptide Y NPY-Y1 membranes, FlashPlate, [125I]-PYY
# T2 construct: purchased Perkin Elmer Biosignal
# T2 sequence (P25929 1-384): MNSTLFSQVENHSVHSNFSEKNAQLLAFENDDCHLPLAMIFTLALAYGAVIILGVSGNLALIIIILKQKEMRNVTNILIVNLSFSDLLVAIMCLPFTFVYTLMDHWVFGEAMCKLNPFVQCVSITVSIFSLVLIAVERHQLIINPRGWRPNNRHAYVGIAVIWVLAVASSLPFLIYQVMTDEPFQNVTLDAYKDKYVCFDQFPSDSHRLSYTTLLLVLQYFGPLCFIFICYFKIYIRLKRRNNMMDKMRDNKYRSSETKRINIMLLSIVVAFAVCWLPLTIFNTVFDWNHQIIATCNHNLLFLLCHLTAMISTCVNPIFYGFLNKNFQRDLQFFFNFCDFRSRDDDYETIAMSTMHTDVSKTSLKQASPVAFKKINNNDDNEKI
# In short: (§2)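 Cloned human receptor membranes were coated onto FlashPlate wells and incubated with radioligand and compound (added from a 0.5 mM DMSO daughter plate) for 1 hour at room temperature in the dark. Scintillation counting gave percent inhibition, with DMSO defining total and reference ligand defining non-specific binding.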
# Human opioid (ORL1) = molecular target: T3, Human opioid (ORL1) (Homo sapiens, UniProt P41146); assay: Radioligand binding, human opioid ORL1 membranes, FlashPlate, [125I]-Nociceptin
# T3 construct: purchased Perkin Elmer Biosignal
# T3 sequence (P41146 whole entry): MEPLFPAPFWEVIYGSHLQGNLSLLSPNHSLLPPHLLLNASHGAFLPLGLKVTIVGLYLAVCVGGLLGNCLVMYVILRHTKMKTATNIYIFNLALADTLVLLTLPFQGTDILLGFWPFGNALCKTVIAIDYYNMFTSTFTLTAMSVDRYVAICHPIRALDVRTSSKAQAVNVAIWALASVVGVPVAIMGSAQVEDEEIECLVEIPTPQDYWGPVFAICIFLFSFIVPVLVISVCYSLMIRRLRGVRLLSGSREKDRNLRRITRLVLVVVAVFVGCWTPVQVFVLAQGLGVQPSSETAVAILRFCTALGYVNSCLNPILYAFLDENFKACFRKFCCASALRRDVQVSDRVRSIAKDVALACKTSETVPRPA
# In short: as §2
# Human Melanocortin (MC3) = molecular target: T4, Human Melanocortin (MC3) (Homo sapiens, UniProt P41968); assay: Radioligand binding, human melanocortin MC3 membranes, FlashPlate, [125I]-NDP-αMSH
# T4 construct: purchased Perkin Elmer Biosignal
# T4 sequence (P41968 whole entry): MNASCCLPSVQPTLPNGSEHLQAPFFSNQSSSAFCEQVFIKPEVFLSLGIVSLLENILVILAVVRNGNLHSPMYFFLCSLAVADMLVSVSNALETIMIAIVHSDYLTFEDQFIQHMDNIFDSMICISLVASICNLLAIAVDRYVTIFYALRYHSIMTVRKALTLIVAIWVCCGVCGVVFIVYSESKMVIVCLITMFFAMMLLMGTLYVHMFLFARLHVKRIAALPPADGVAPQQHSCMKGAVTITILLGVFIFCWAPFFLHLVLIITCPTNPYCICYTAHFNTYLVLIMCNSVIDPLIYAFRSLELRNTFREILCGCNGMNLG
# In short: as §2
# [2] = molecular target: T5, Human melanin-concentrating hormone (MCH1) (Homo sapiens, UniProt Q99705); assay: Radioligand binding, human melanin-concentrating hormone MCH1 membranes, FlashPlate, [125I]-S36057
# T5 construct: purchased Perkin Elmer Biosignal
# T5 sequence (Q99705 whole entry): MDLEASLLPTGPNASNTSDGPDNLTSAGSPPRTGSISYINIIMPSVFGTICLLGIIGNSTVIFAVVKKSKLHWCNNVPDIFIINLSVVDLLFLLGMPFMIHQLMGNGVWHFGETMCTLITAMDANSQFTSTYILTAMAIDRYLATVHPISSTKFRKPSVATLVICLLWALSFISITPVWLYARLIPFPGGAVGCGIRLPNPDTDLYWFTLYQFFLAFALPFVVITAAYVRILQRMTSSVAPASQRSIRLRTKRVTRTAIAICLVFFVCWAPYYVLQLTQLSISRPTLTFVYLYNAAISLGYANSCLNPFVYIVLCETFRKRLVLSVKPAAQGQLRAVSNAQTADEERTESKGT
# In short: as §2
# Human κ-Opioid (KOP) = molecular target: T6, Human κ-Opioid (KOP) (Homo sapiens, UniProt P41145); assay: Radioligand binding, human κ-opioid (KOP) membranes, filtration, [3H]-Diprenorphine
# T6 construct: purchased Perkin Elmer Biosignal
# T6 sequence (P41145 whole entry): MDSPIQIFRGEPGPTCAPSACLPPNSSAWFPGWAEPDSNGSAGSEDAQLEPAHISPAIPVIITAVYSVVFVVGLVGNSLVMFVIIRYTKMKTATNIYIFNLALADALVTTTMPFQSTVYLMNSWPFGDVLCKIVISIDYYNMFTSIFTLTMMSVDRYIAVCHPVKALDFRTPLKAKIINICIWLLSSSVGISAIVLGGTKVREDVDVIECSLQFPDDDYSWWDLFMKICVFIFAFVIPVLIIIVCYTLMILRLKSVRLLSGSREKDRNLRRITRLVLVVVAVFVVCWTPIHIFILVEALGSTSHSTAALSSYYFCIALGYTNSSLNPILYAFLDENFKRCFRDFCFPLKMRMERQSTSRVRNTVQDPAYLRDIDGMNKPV
# In short: as §1
# Human δ-opioid (DOP) = molecular target: T7, Human δ-opioid (DOP) (Homo sapiens, UniProt P41143); assay: Radioligand binding, human δ-opioid (DOP) membranes, FlashPlate, [3H]-Bremazocine
# T7 construct: purchased Perkin Elmer Biosignal
# T7 sequence (P41143 whole entry): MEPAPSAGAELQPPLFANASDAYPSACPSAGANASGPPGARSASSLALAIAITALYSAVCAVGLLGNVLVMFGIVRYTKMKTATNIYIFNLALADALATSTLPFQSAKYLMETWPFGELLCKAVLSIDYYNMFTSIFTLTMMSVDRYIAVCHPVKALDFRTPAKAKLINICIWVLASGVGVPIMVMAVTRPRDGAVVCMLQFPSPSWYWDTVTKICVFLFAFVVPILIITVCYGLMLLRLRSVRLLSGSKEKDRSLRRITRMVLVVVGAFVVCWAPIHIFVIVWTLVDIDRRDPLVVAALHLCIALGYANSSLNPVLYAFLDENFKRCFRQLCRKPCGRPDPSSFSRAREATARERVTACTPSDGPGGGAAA
# In short: as §2
# Mouse urotensin (mUR2) = molecular target: T8, Mouse urotensin (mUR2) (Mus musculus, UniProt Q8VIH9); assay: Radioligand binding, mouse urotensin mUR2 membranes, FlashPlate, [125I]-Urotensin II
# T8 construct: purchased Perkin Elmer Biosignal
# T8 sequence (Q8VIH9 1-385): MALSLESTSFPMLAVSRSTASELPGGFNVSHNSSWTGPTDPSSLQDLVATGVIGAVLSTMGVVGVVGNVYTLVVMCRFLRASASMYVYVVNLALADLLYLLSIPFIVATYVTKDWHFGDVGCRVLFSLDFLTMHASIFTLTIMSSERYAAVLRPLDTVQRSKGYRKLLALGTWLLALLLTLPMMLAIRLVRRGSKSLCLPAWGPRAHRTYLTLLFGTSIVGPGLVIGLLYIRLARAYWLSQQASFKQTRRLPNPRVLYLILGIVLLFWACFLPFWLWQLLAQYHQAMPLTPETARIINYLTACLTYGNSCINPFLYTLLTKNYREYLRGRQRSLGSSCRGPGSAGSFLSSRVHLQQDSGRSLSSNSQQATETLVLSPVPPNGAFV
# In short: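 Cloned mouse urotensin (mUR2) receptor membranes from Perkin Elmer Biosignal were immobilized in FlashPlate microplates using a proprietary coating. Each well got 19.5 μl buffer, then 0.5 μl of DMSO, reference ligand, or compound. Adding 5 μl of [125I]-Urotensin II, diluted to 5× final concentration in binding buffer, started binding. Plates were sealed with TopSeal-A and incubated 1 hour at room temperature in the dark. Wells were counted for 30 seconds each on a TopCount after a 60-second delay, and percentage inhibition was calculated.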
# Human melanocortin (MC5) = molecular target: T9, Human melanocortin (MC5) (Homo sapiens, UniProt P33032); assay: Radioligand binding, human melanocortin MC5 membranes, FlashPlate, [125I]-NDP-αMSH
# T9 construct: purchased Perkin Elmer Biosignal
# T9 sequence (P33032 whole entry): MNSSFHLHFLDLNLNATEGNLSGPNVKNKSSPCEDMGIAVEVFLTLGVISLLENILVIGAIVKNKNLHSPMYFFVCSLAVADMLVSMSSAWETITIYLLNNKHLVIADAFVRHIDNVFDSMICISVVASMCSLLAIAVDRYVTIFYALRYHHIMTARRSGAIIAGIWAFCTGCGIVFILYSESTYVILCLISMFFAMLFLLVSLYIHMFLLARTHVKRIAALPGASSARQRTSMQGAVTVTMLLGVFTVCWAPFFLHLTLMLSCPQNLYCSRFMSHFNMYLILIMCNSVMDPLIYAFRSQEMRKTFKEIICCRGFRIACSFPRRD
# In short: as §2
# Human Melanocortin (MC4) = molecular target: T10, Human Melanocortin (MC4) (Homo sapiens, UniProt P32245); assay: Radioligand binding, human melanocortin MC4 membranes, FlashPlate, [125I]-NDP-αMSH
# T10 construct: purchased Perkin Elmer Biosignal
# T10 sequence (P32245 whole entry): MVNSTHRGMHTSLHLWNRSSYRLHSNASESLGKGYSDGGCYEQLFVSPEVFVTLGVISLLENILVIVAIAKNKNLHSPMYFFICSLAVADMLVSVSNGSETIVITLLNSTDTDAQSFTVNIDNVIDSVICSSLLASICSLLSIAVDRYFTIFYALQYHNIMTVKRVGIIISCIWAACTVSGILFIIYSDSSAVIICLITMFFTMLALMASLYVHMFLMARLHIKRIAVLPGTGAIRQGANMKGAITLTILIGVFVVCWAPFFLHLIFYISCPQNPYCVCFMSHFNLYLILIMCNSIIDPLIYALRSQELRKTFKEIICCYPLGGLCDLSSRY
# In short: as §2
# Human μ-opioid (MOP) = molecular target: T11, Human μ-opioid (MOP) (Homo sapiens, UniProt P35372); assay: Radioligand binding, human μ-opioid (MOP) membranes, FlashPlate, [3H]-Naloxone
# T11 construct: purchased Perkin Elmer Biosignal
# T11 sequence (P35372 whole entry): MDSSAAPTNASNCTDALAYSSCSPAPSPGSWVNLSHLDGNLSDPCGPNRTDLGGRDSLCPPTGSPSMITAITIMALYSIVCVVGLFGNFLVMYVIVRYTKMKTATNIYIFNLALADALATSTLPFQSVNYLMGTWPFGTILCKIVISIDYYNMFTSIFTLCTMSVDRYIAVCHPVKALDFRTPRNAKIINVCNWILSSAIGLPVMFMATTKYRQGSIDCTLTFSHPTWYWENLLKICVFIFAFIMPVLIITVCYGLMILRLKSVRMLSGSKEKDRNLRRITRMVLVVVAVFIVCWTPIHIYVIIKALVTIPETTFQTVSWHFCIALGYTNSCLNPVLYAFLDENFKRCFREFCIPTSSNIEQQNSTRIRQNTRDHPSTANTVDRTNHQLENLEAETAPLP
# In short: as §2
# T1 sequence (P25103 whole entry): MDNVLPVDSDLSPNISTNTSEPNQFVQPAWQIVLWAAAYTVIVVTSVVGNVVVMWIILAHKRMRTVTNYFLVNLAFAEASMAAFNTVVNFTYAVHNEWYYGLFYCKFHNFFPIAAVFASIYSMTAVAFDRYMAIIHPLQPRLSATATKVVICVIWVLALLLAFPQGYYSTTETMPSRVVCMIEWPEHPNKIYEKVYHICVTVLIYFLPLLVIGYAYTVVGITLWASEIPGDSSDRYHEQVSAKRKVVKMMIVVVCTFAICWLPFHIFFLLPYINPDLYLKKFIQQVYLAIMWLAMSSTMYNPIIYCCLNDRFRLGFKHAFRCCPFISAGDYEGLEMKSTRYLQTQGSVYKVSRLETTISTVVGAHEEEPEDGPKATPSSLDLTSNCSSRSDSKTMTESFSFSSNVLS
smiles,measurement,setting,value
COC[C@H]1OC(OCc2ccc3ccccc3c2)[C@H](NC(=O)CCCNC(=N)N)[C@@H](OCc2cccc(O)c2)[C@@H]1O (stereo partly shown) [compound 135],"A8 radioligand binding, percentage inhibition",Human neurokinin (NK1); [125I]-Substance P,− (“−” indicates less than 50% inhibition at 10 μM)
same,"A9 radioligand binding, percentage inhibition",[1]; [125I]-PYY,− (“−” indicates less than 50% inhibition at 10 μM)
same,"A10 radioligand binding, percentage inhibition",Human opioid (ORL1); [125I]-Nociceptin,− (“−” indicates less than 50% inhibition at 10 μM)
same,"A3 radioligand binding, percentage inhibition",Human Melanocortin (MC3); [125I]-NDP-αMSH,− (“−” indicates less than 50% inhibition at 10 μM)
same,"A6 radioligand binding, percentage inhibition",[2]; [125I]-S36057,− (“−” indicates less than 50% inhibition at 10 μM)
same,"A2 radioligand binding, percentage inhibition",Human κ-Opioid (KOP); [3H]-Diprenorphine,− (“−” indicates less than 50% inhibition at 10 μM)
same,"A1 radioligand binding, percentage inhibition",Human δ-opioid (DOP); [3H]-Bremazocine,− (“−” indicates less than 50% inhibition at 10 μM)
same,"A11 radioligand binding, percentage inhibition",Mouse urotensin (mUR2); [125I]-Urotensin II,− (“−” indicates less than 50% inhibition at 10 μM)
same,"A5 radioligand binding, percentage inhibition",Human melanocortin (MC5); [125I]-NDP-αMSH,− (“−” indicates less than 50% inhibition at 10 μM)
same,"A4 radioligand binding, percentage inhibition",Human Melanocortin (MC4); [125I]-NDP-αMSH,− (“−” indicates less than 50% inhibition at 10 μM)
same,"A7 radioligand binding, percentage inhibition",Human μ-opioid (MOP); [3H]-Naloxone,+ (“+” indicates greater than 50% inhibition at 10 μM)
CO[C@H]1[C@H](O)[C@@H](COCc2ccc(-c3ccccc3)cc2)OC(OCCc2ccccc2)[C@@H]1NC(=O)CCNC(=N)N (stereo partly shown) [compound 110],"A8 radioligand binding, percentage inhibition",Human neurokinin (NK1); [125I]-Substance P,− (“−” indicates less than 50% inhibition at 10 μM)
same,"A9 radioligand binding, percentage inhibition",[1]; [125I]-PYY,− (“−” indicates less than 50% inhibition at 10 μM)
same,"A10 radioligand binding, percentage inhibition",Human opioid (ORL1); [125I]-Nociceptin,− (“−” indicates less than 50% inhibition at 10 μM)
same,"A3 radioligand binding, percentage inhibition",Human Melanocortin (MC3); [125I]-NDP-αMSH,− (“−” indicates less than 50% inhibition at 10 μM)
same,"A6 radioligand binding, percentage inhibition",[2]; [125I]-S36057,− (“−” indicates less than 50% inhibition at 10 μM)
same,"A2 radioligand binding, percentage inhibition",Human κ-Opioid (KOP); [3H]-Diprenorphine,− (“−” indicates less than 50% inhibition at 10 μM)
same,"A1 radioligand binding, percentage inhibition",Human δ-opioid (DOP); [3H]-Bremazocine,− (“−” indicates less than 50% inhibition at 10 μM)
same,"A11 radioligand binding, percentage inhibition",Mouse urotensin (mUR2); [125I]-Urotensin II,− (“−” indicates less than 50% inhibition at 10 μM)
same,"A5 radioligand binding, percentage inhibition",Human melanocortin (MC5); [125I]-NDP-αMSH,+ (“+” indicates greater than 50% inhibition at 10 μM)
same,"A4 radioligand binding, percentage inhibition",Human Melanocortin (MC4); [125I]-NDP-αMSH,+ (“+” indicates greater than 50% inhibition at 10 μM)
same,"A7 radioligand binding, percentage inhibition",Human μ-opioid (MOP); [3H]-Naloxone,− (“−” indicates less than 50% inhibition at 10 μM)
COC[C@H]1OC(OCCc2ccccc2)[C@H](NC(=O)CNC(=N)N)[C@@H](OCc2ccc(Cl)cc2)[C@@H]1O (stereo partly shown) [compound 48],A8 radioligand binding inhibition,Human neurokinin (NK1); human neurokinin NK1 membranes,− (“−” indicates less than 50% inhibition at 10 μM)
same,A9 radioligand binding inhibition,[1]; human NPY-Y1 membranes,− (“−” indicates less than 50% inhibition at 10 μM)
same,A10 radioligand binding inhibition,Human opioid (ORL1); human ORL1 membranes,− (“−” indicates less than 50% inhibition at 10 μM)
same,A3 radioligand binding inhibition,Human Melanocortin (MC3); human melanocortin MC3 membranes,− (“−” indicates less than 50% inhibition at 10 μM)
same,A6 radioligand binding inhibition,[2]; human MCH1 membranes,+ (“+” indicates greater than 50% inhibition at 10 μM)
same,A2 radioligand binding inhibition,Human κ-Opioid (KOP); human κ-opioid (KOP) membranes,− (“−” indicates less than 50% inhibition at 10 μM)
same,A1 radioligand binding inhibition,Human δ-opioid (DOP); human δ-opioid (DOP) membranes,− (“−” indicates less than 50% inhibition at 10 μM)
same,A11 radioligand binding inhibition,Mouse urotensin (mUR2); mouse urotensin mUR2 membranes,− (“−” indicates less than 50% inhibition at 10 μM)
same,A5 radioligand binding inhibition,Human melanocortin (MC5); human melanocortin MC5 membranes,+ (“+” indicates greater than 50% inhibition at 10 μM)
same,A4 radioligand binding inhibition,Human Melanocortin (MC4); human melanocortin MC4 membranes,+ (“+” indicates greater than 50% inhibition at 10 μM)
same,A7 radioligand binding inhibition,Human μ-opioid (MOP); human μ-opioid (MOP) membranes,− (“−” indicates less than 50% inhibition at 10 μM)
"NCCC(=O)NC1C(OCc2ccc(Cl)cc2)OC(COCc2ccc(Cl)cc2)C(O)C1OCc1ccc(Cl)cc1 (single isomer, unassigned) [compound 476]","A8: inhibition of radioligand binding, human neurokinin (NK1)",Human neurokinin (NK1); [125I]-Substance P,+ (“+” indicates greater than 50% inhibition at 10 μM)
same,"A9: inhibition of radioligand binding, human neuropeptide Y (NPY-Y1)",[1]; [125I]-PYY,− (“−” indicates less than 50% inhibition at 10 μM)
same,"A10: inhibition of radioligand binding, human opioid (ORL1)",Human opioid (ORL1); [125I]-Nociceptin,+ (“+” indicates greater than 50% inhibition at 10 μM)
same,"A3: inhibition of radioligand binding, human melanocortin (MC3)",Human Melanocortin (MC3); [125I]-NDP-αMSH,+ (“+” indicates greater than 50% inhibition at 10 μM)
same,"A6: inhibition of radioligand binding, human melanin-concentrating hormone (MCH1)",[2]; [125I]-S36057,+ (“+” indicates greater than 50% inhibition at 10 μM)
same,"A2: inhibition of radioligand binding, human κ-opioid (KOP)",Human κ-Opioid (KOP); [3H]-Diprenorphine,− (“−” indicates less than 50% inhibition at 10 μM)
same,"A1: inhibition of radioligand binding, human δ-opioid (DOP)",Human δ-opioid (DOP); [3H]-Bremazocine,− (“−” indicates less than 50% inhibition at 10 μM)
same,"A11: inhibition of radioligand binding, mouse urotensin (mUR2)",Mouse urotensin (mUR2); [125I]-Urotensin II,− (“−” indicates less than 50% inhibition at 10 μM)
same,"A5: inhibition of radioligand binding, human melanocortin (MC5)",Human melanocortin (MC5); [125I]-NDP-αMSH,+ (“+” indicates greater than 50% inhibition at 10 μM)
same,"A4: inhibition of radioligand binding, human melanocortin (MC4)",Human Melanocortin (MC4); [125I]-NDP-αMSH,+ (“+” indicates greater than 50% inhibition at 10 μM)
same,"A7: inhibition of radioligand binding, human μ-opioid (MOP)",Human μ-opioid (MOP); [3H]-Naloxone,+ (“+” indicates greater than 50% inhibition at 10 μM)
N=C(N)NCCC(=O)NC1C(OCc2ccc(Cl)cc2)OC(COCc2ccc(Cl)cc2)C(O)C1OCc1ccc2ccccc2c1 (stereo not shown) [compound 431],A8: inhibition of radioligand binding,"Human neurokinin (NK1); [125I]-Substance P, human NK1 membranes",+ (“+” indicates greater than 50% inhibition at 10 μM)
same,A9: inhibition of radioligand binding,"[1]; [125I]-PYY, human NPY-Y1 membranes",− (“−” indicates less than 50% inhibition at 10 μM)
same,A10: inhibition of radioligand binding,"Human opioid (ORL1); [125I]-Nociceptin, human ORL1 membranes",+ (“+” indicates greater than 50% inhibition at 10 μM)
same,A3: inhibition of radioligand binding,"Human Melanocortin (MC3); [125I]-NDP-αMSH, human MC3 membranes",+ (“+” indicates greater than 50% inhibition at 10 μM)
same,A6: inhibition of radioligand binding,"[2]; [125I]-S36057, human MCH1 membranes",+ (“+” indicates greater than 50% inhibition at 10 μM)
same,A2: inhibition of radioligand binding,"Human κ-Opioid (KOP); [3H]-Diprenorphine, human KOP membranes",− (“−” indicates less than 50% inhibition at 10 μM)
same,A1: inhibition of radioligand binding,"Human δ-opioid (DOP); [3H]-Bremazocine, human DOP membranes",− (“−” indicates less than 50% inhibition at 10 μM)
same,A11: inhibition of radioligand binding,"Mouse urotensin (mUR2); [125I]-Urotensin II, mouse mUR2 membranes",− (“−” indicates less than 50% inhibition at 10 μM)
same,A5: inhibition of radioligand binding,"Human melanocortin (MC5); [125I]-NDP-αMSH, human MC5 membranes",+ (“+” indicates greater than 50% inhibition at 10 μM)
same,A4: inhibition of radioligand binding,"Human Melanocortin (MC4); [125I]-NDP-αMSH, human MC4 membranes",+ (“+” indicates greater than 50% inhibition at 10 μM)
same,A7: inhibition of radioligand binding,"Human μ-opioid (MOP); [3H]-Naloxone, human MOP membranes",− (“−” indicates less than 50% inhibition at 10 μM)
